Experimental data taken from US9227967B2, “Inhibitor compounds of semicarbazide-sensitive amine oxidases” (Proximagen Limited, priority 2010, dated 2016).

Biological target: T1, human SSAO (Homo sapiens, UniProt Q16853)
T1 construct: made in house
T1 sequence (Q16853 29-763 limits assumed): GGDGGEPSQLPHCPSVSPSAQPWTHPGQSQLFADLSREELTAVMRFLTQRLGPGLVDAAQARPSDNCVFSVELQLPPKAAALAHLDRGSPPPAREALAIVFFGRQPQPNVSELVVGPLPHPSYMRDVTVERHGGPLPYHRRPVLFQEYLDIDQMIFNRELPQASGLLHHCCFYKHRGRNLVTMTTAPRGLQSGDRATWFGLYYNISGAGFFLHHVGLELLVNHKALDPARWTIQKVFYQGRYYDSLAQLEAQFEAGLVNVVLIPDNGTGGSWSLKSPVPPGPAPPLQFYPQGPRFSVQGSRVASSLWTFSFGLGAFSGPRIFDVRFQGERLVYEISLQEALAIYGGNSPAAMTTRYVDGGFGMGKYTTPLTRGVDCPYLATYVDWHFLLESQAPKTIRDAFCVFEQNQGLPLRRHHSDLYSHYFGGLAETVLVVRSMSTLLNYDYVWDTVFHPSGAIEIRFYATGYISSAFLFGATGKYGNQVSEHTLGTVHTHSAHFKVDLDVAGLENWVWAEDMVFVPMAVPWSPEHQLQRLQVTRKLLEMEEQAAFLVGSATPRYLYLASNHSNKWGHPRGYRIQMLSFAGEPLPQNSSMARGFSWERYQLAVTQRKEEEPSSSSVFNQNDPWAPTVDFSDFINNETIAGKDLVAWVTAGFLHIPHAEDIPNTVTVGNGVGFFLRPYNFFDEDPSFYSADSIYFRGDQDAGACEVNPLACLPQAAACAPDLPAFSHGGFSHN
Experiment: SSAO enzyme inhibition assay (benzylamine substrate; HRP-coupled hydrogen peroxide detection or 14C-benzaldehyde detection)
Format: biochemical
Details: purified recombinantly expressed human SSAO, benzylamine as substrate, r.t.; read-out: SSAO inhibitory activity IC50
In short: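 Purified recombinant human SSAO, pre-incubated ~15 min at r.t. with compound, then benzylamine added; final DMSO ≦2%. HRP-coupled Amplex format in 50 mM sodium phosphate pH 7.4: enzyme 1 μg/ml, benzylamine 100 μM (≈Km), fluorescence over 1-2 h; 14C format: enzyme 10 μg/ml, benzylamine 40 μM, 1 h. IC50 from four-parameter fit.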

Row | Structure (SMILES) | IC50 [µM]
1 | Clc1ccc(-n2cc(N3CCOCC3)c3ccncc32)cc1 [Compound 104, 4-[1-(4-Chlorophenyl)-1H-pyrrolo[2,3-c]pyridin-3-yl]morpholine 2,2,2-trifluoroacetic acid] | < 0.1
2 | NCCCC(=O)N1CCC(c2cn(-c3ccc(Cl)cc3)c3cnccc23)CC1 [Compound 105, 2,2,2-Trifluoroacetic acid; 4-amino-1-{4-[1-(4-chlorophenyl)-1H-pyrrolo[2,3-c]pyridin-3-yl]piperidin-1-yl}butan-1-one] | < 0.1
3 | NCCOC(=O)N1CCC(c2cn(-c3ccc(Cl)cc3)c3cnccc23)CC1 [Compound 106, 2-Aminoethyl 4-[1-(4-chlorophenyl)-1H-pyrrolo[2,3-c]pyridin-3-yl]piperidine-1-carboxylate] | < 0.1

The next lines start with the values.

Row | IC50 [µM] | Structure (SMILES)
4 | 0.1 to 0.5 | Clc1ccc(-n2cc(C3CCOCC3)c3ccncc32)nc1 [Compound 103, 5-Chloro-2-[3-(oxan-4-yl)-1H-pyrrolo[2,3-c]pyridin-1-yl]pyridine]
5 | < 0.1 | Cc1ccc(-n2c(C)c(C3=CCOCC3)c3ccncc32)cc1 [Compound 107, 3-(3,6-Dihydro-2H-pyran-4-yl)-2-methyl-1-(4-methylphenyl)-1H-pyrrolo[2,3-c]pyridine]
